Laboratory results reported in the NIST ThermoML archive (doi:10.1016/j.jct.2013.11.003).
± gives the expanded uncertainty stated by the source.

Conditions: Liquid, Transpiration method

## COc1cccs1 [2-methoxythiophene]
278.1 K
  vapor or sublimation pressure: 0.1302 ± 0.0068 kPa
281 K
  vapor or sublimation pressure: 0.1585 ± 0.0082 kPa
283 K
  vapor or sublimation pressure: 0.1804 ± 0.0095 kPa
285.9 K
  vapor or sublimation pressure: 0.2284 ± 0.012 kPa
287.8 K
  vapor or sublimation pressure: 0.2708 ± 0.014 kPa
290.7 K
  vapor or sublimation pressure: 0.3244 ± 0.017 kPa
292.7 K
  vapor or sublimation pressure: 0.3939 ± 0.02 kPa
295.7 K
  vapor or sublimation pressure: 0.4587 ± 0.024 kPa
297.6 K
  vapor or sublimation pressure: 0.5406 ± 0.028 kPa
300.6 K
  vapor or sublimation pressure: 0.6383 ± 0.033 kPa
302.6 K
  vapor or sublimation pressure: 0.6976 ± 0.036 kPa
305.6 K
  vapor or sublimation pressure: 0.8682 ± 0.045 kPa
307.6 K
  vapor or sublimation pressure: 0.9894 ± 0.051 kPa
310.6 K
  vapor or sublimation pressure: 1.147 ± 0.059 kPa
312.6 K
  vapor or sublimation pressure: 1.336 ± 0.069 kPa
312.7 K
  vapor or sublimation pressure: 1.299 ± 0.067 kPa
313.6 K
  vapor or sublimation pressure: 1.366 ± 0.071 kPa
315.6 K
  vapor or sublimation pressure: 1.559 ± 0.08 kPa
318.6 K
  vapor or sublimation pressure: 1.83 ± 0.094 kPa
321.7 K
  vapor or sublimation pressure: 2.196 ± 0.11 kPa
323.7 K
  vapor or sublimation pressure: 2.471 ± 0.13 kPa

## COc1ccsc1 [3-methoxythiophene]
278.1 K
  vapor or sublimation pressure: 0.089 ± 0.0047 kPa
281 K
  vapor or sublimation pressure: 0.1105 ± 0.0058 kPa
283.9 K
  vapor or sublimation pressure: 0.1366 ± 0.0071 kPa
286.8 K
  vapor or sublimation pressure: 0.1662 ± 0.0087 kPa
289.7 K
  vapor or sublimation pressure: 0.2094 ± 0.011 kPa
292.6 K
  vapor or sublimation pressure: 0.2646 ± 0.014 kPa
295.7 K
  vapor or sublimation pressure: 0.32 ± 0.016 kPa
297.6 K
  vapor or sublimation pressure: 0.3561 ± 0.018 kPa
300.6 K
  vapor or sublimation pressure: 0.4274 ± 0.022 kPa
303.6 K
  vapor or sublimation pressure: 0.5203 ± 0.027 kPa
306.6 K
  vapor or sublimation pressure: 0.6282 ± 0.033 kPa
309.6 K
  vapor or sublimation pressure: 0.7649 ± 0.039 kPa
312.6 K
  vapor or sublimation pressure: 0.9169 ± 0.047 kPa
315.7 K
  vapor or sublimation pressure: 1.078 ± 0.055 kPa
318.7 K
  vapor or sublimation pressure: 1.313 ± 0.067 kPa
321.7 K
  vapor or sublimation pressure: 1.536 ± 0.078 kPa
324.7 K
  vapor or sublimation pressure: 1.765 ± 0.089 kPa
